# Measurements reported in US4479951A, “1.4;3.6-Dianhydrohexitol nitrates substituted by purine bases, processes for their preparation and pharmaceutical compositions” (Dr. Willmar Schwabe GmbH & Co., priority 1980, dated 1984).
# Test system: mongrel dogs
# Experiment: circulatory-pharmacological effectiveness on the narcotised dog, intravenous administration
# Assay type: in vivo
compound,measurement,setting,value
"Nc1ncnc2c1ncn2[C@H]1CO[C@H]2[C@@H]1OC[C@@H]2O[N+](=O)[O-] [1c/2c, 5-(9-Adenyl)-5-desoxy-1.4;3.6-dianhydro-L-iditol 2-nitrate]",APdiast: diastolic aorta pressure,2 min after i.v. 1 mg/kg,74.1 mm.Hg
same,APsyst: systolic aorta pressure,2 min after i.v. 1 mg/kg,115.3 mm.Hg
same,"BFFem: blood flow in the A. femoralis, referred to 20 kg. body weight",2 min after i.v. 1 mg/kg,35.3 mL/min
same,HF: heart frequency,2 min after i.v. 1 mg/kg,158.7 min⁻¹
same,"HLL: heart capacity left, referred to 20 kg. body weight",2 min after i.v. 1 mg/kg,0.75 W
same,"HLR: heart capacity right, referred to 20 kg. body weight",2 min after i.v. 1 mg/kg,115.8 mW
same,"HZV: heart minute volume, referred to 20 kg. body weight",2 min after i.v. 1 mg/kg,3.91 L/min
same,LVEDP: end diastolic pressure in the left ventricle,2 min after i.v. 1 mg/kg,2.62 mm.Hg
same,PAP: average pressure in the A. pulmonalis,2 min after i.v. 1 mg/kg,15.6 ±2.1 mm.Hg
same,PRA: pressure in the right atrium,2 min after i.v. 1 mg/kg,2.06 mm.Hg
same,"SV: beat volume, referred to 20 kg. body weight",2 min after i.v. 1 mg/kg,25.6 mL
same,"WAP: pulmonalis resistance, referred to 20 kg. body weight",2 min after i.v. 1 mg/kg,0.45 U
same,"WFem: femoralis resistance, referred to 20 kg. body weight",2 min after i.v. 1 mg/kg,0.35 KU
same,"WTP: total peripheral resistance, referred to 20 kg. body weight",2 min after i.v. 1 mg/kg,2.93 U
same,dp/dt: rate of pressure increase in the left ventricle,2 min after i.v. 1 mg/kg,2606.2 mm.Hg/sec.
same,APdiast: diastolic aorta pressure,5 min after i.v. 1 mg/kg,82.5 mm.Hg
same,APsyst: systolic aorta pressure,5 min after i.v. 1 mg/kg,120.9 mm.Hg
same,"BFFem: blood flow in the A. femoralis, referred to 20 kg. body weight",5 min after i.v. 1 mg/kg,36.6 mL/min
same,HF: heart frequency,5 min after i.v. 1 mg/kg,148.7 min⁻¹
same,"HLL: heart capacity left, referred to 20 kg. body weight",5 min after i.v. 1 mg/kg,0.74 W
same,"HLR: heart capacity right, referred to 20 kg. body weight",5 min after i.v. 1 mg/kg,87.6 mW
same,"HZV: heart minute volume, referred to 20 kg. body weight",5 min after i.v. 1 mg/kg,3.61 L/min
same,LVEDP: end diastolic pressure in the left ventricle,5 min after i.v. 1 mg/kg,2.91 mm.Hg
same,PAP: average pressure in the A. pulmonalis,5 min after i.v. 1 mg/kg,13.7 ±1.4 mm.Hg
same,PRA: pressure in the right atrium,5 min after i.v. 1 mg/kg,2.81 mm.Hg
same,"SV: beat volume, referred to 20 kg. body weight",5 min after i.v. 1 mg/kg,26.0 mL
same,"WAP: pulmonalis resistance, referred to 20 kg. body weight",5 min after i.v. 1 mg/kg,0.40 U
same,"WFem: femoralis resistance, referred to 20 kg. body weight",5 min after i.v. 1 mg/kg,0.36 KU
same,"WTP: total peripheral resistance, referred to 20 kg. body weight",5 min after i.v. 1 mg/kg,3.42 U
same,dp/dt: rate of pressure increase in the left ventricle,5 min after i.v. 1 mg/kg,2343.7 mm.Hg/sec.
same,APdiast: diastolic aorta pressure,7 min after i.v. 1 mg/kg,83.4 mm.Hg
same,APsyst: systolic aorta pressure,7 min after i.v. 1 mg/kg,121.9 mm.Hg
same,"BFFem: blood flow in the A. femoralis, referred to 20 kg. body weight",7 min after i.v. 1 mg/kg,38.6 mL/min
same,HF: heart frequency,7 min after i.v. 1 mg/kg,146.7 min⁻¹
same,"HLL: heart capacity left, referred to 20 kg. body weight",7 min after i.v. 1 mg/kg,0.72 W
same,"HLR: heart capacity right, referred to 20 kg. body weight",7 min after i.v. 1 mg/kg,89.3 mW
same,"HZV: heart minute volume, referred to 20 kg. body weight",7 min after i.v. 1 mg/kg,3.51 L/min
same,LVEDP: end diastolic pressure in the left ventricle,7 min after i.v. 1 mg/kg,2.91 mm.Hg
same,PAP: average pressure in the A. pulmonalis,7 min after i.v. 1 mg/kg,14.1 ±1.6 mm.Hg
same,PRA: pressure in the right atrium,7 min after i.v. 1 mg/kg,2.81 mm.Hg
same,"SV: beat volume, referred to 20 kg. body weight",7 min after i.v. 1 mg/kg,25.6 mL
same,"WAP: pulmonalis resistance, referred to 20 kg. body weight",7 min after i.v. 1 mg/kg,0.42 U
same,"WFem: femoralis resistance, referred to 20 kg. body weight",7 min after i.v. 1 mg/kg,0.34 KU
same,"WTP: total peripheral resistance, referred to 20 kg. body weight",7 min after i.v. 1 mg/kg,3.59 U
same,dp/dt: rate of pressure increase in the left ventricle,7 min after i.v. 1 mg/kg,2362.5 mm.Hg/sec.
same,APdiast: diastolic aorta pressure,10 min after i.v. 1 mg/kg,83.4 mm.Hg
same,APsyst: systolic aorta pressure,10 min after i.v. 1 mg/kg,120.9 mm.Hg
same,"BFFem: blood flow in the A. femoralis, referred to 20 kg. body weight",10 min after i.v. 1 mg/kg,39.5 mL/min
same,HF: heart frequency,10 min after i.v. 1 mg/kg,141.2 min⁻¹
same,"HLL: heart capacity left, referred to 20 kg. body weight",10 min after i.v. 1 mg/kg,0.72 W
same,"HLR: heart capacity right, referred to 20 kg. body weight",10 min after i.v. 1 mg/kg,88.8 mW
same,"HZV: heart minute volume, referred to 20 kg. body weight",10 min after i.v. 1 mg/kg,3.5 L/min
same,LVEDP: end diastolic pressure in the left ventricle,10 min after i.v. 1 mg/kg,3.20 mm.Hg
same,PAP: average pressure in the A. pulmonalis,10 min after i.v. 1 mg/kg,14.2 ±1.6 mm.Hg
same,PRA: pressure in the right atrium,10 min after i.v. 1 mg/kg,2.95 mm.Hg
same,"SV: beat volume, referred to 20 kg. body weight",10 min after i.v. 1 mg/kg,26.4 mL
same,"WAP: pulmonalis resistance, referred to 20 kg. body weight",10 min after i.v. 1 mg/kg,0.42 U
same,"WFem: femoralis resistance, referred to 20 kg. body weight",10 min after i.v. 1 mg/kg,0.33 KU
same,"WTP: total peripheral resistance, referred to 20 kg. body weight",10 min after i.v. 1 mg/kg,3.57 U
same,dp/dt: rate of pressure increase in the left ventricle,10 min after i.v. 1 mg/kg,2268.7 mm.Hg/sec.
same,APdiast: diastolic aorta pressure,15 min after i.v. 1 mg/kg,80.6 mm.Hg
same,APsyst: systolic aorta pressure,15 min after i.v. 1 mg/kg,120.4 mm.Hg
same,"BFFem: blood flow in the A. femoralis, referred to 20 kg. body weight",15 min after i.v. 1 mg/kg,39.9 mL/min
same,HF: heart frequency,15 min after i.v. 1 mg/kg,133.0 min⁻¹
same,"HLL: heart capacity left, referred to 20 kg. body weight",15 min after i.v. 1 mg/kg,0.72 W
same,"HLR: heart capacity right, referred to 20 kg. body weight",15 min after i.v. 1 mg/kg,87.3 mW
same,"HZV: heart minute volume, referred to 20 kg. body weight",15 min after i.v. 1 mg/kg,3.61 L/min
same,LVEDP: end diastolic pressure in the left ventricle,15 min after i.v. 1 mg/kg,3.37 mm.Hg
same,PAP: average pressure in the A. pulmonalis,15 min after i.v. 1 mg/kg,14.0 ±1.9 mm.Hg
same,PRA: pressure in the right atrium,15 min after i.v. 1 mg/kg,3.24 mm.Hg
same,"SV: beat volume, referred to 20 kg. body weight",15 min after i.v. 1 mg/kg,29.3 mL
same,"WAP: pulmonalis resistance, referred to 20 kg. body weight",15 min after i.v. 1 mg/kg,0.40 U
same,"WFem: femoralis resistance, referred to 20 kg. body weight",15 min after i.v. 1 mg/kg,0.32 KU
same,"WTP: total peripheral resistance, referred to 20 kg. body weight",15 min after i.v. 1 mg/kg,3.41 U
same,dp/dt: rate of pressure increase in the left ventricle,15 min after i.v. 1 mg/kg,2250.0 mm.Hg/sec.
same,APdiast: diastolic aorta pressure,20 min after i.v. 1 mg/kg,79.1 mm.Hg
same,APsyst: systolic aorta pressure,20 min after i.v. 1 mg/kg,121.5 mm.Hg
same,"BFFem: blood flow in the A. femoralis, referred to 20 kg. body weight",20 min after i.v. 1 mg/kg,41.2 mL/min
same,HF: heart frequency,20 min after i.v. 1 mg/kg,129.7 min⁻¹
same,"HLL: heart capacity left, referred to 20 kg. body weight",20 min after i.v. 1 mg/kg,0.72 W
same,"HLR: heart capacity right, referred to 20 kg. body weight",20 min after i.v. 1 mg/kg,87.7 mW
same,"HZV: heart minute volume, referred to 20 kg. body weight",20 min after i.v. 1 mg/kg,3.66 L/min
same,LVEDP: end diastolic pressure in the left ventricle,20 min after i.v. 1 mg/kg,3.56 mm.Hg
same,PAP: average pressure in the A. pulmonalis,20 min after i.v. 1 mg/kg,13.8 ±1.7 mm.Hg
same,PRA: pressure in the right atrium,20 min after i.v. 1 mg/kg,3.30 mm.Hg
same,"SV: beat volume, referred to 20 kg. body weight",20 min after i.v. 1 mg/kg,30.0 mL
same,"WAP: pulmonalis resistance, referred to 20 kg. body weight",20 min after i.v. 1 mg/kg,0.37 U
same,"WFem: femoralis resistance, referred to 20 kg. body weight",20 min after i.v. 1 mg/kg,0.31 KU
same,"WTP: total peripheral resistance, referred to 20 kg. body weight",20 min after i.v. 1 mg/kg,3.32 U
same,dp/dt: rate of pressure increase in the left ventricle,20 min after i.v. 1 mg/kg,2231.2 mm.Hg/sec.
same,APdiast: diastolic aorta pressure,25 min after i.v. 1 mg/kg,80.6 mm.Hg
same,APsyst: systolic aorta pressure,25 min after i.v. 1 mg/kg,122.8 mm.Hg
same,"BFFem: blood flow in the A. femoralis, referred to 20 kg. body weight",25 min after i.v. 1 mg/kg,42.2 mL/min
same,HF: heart frequency,25 min after i.v. 1 mg/kg,125.7 min⁻¹
same,"HLL: heart capacity left, referred to 20 kg. body weight",25 min after i.v. 1 mg/kg,0.74 W
same,"HLR: heart capacity right, referred to 20 kg. body weight",25 min after i.v. 1 mg/kg,90.0 mW
same,"HZV: heart minute volume, referred to 20 kg. body weight",25 min after i.v. 1 mg/kg,3.7 L/min
same,LVEDP: end diastolic pressure in the left ventricle,25 min after i.v. 1 mg/kg,4.03 mm.Hg
same,PAP: average pressure in the A. pulmonalis,25 min after i.v. 1 mg/kg,14.0 ±1.8 mm.Hg
same,PRA: pressure in the right atrium,25 min after i.v. 1 mg/kg,3.28 mm.Hg
same,"SV: beat volume, referred to 20 kg. body weight",25 min after i.v. 1 mg/kg,31.3 mL
same,"WAP: pulmonalis resistance, referred to 20 kg. body weight",25 min after i.v. 1 mg/kg,0.36 U
same,"WFem: femoralis resistance, referred to 20 kg. body weight",25 min after i.v. 1 mg/kg,0.31 KU
same,"WTP: total peripheral resistance, referred to 20 kg. body weight",25 min after i.v. 1 mg/kg,3.33 U
same,dp/dt: rate of pressure increase in the left ventricle,25 min after i.v. 1 mg/kg,2175.0 mm.Hg/sec.
same,APdiast: diastolic aorta pressure,30 min after i.v. 1 mg/kg,79.7 mm.Hg
same,APsyst: systolic aorta pressure,30 min after i.v. 1 mg/kg,122.8 mm.Hg
same,"BFFem: blood flow in the A. femoralis, referred to 20 kg. body weight",30 min after i.v. 1 mg/kg,43.9 mL/min
same,HF: heart frequency,30 min after i.v. 1 mg/kg,122.7 min⁻¹
same,"HLL: heart capacity left, referred to 20 kg. body weight",30 min after i.v. 1 mg/kg,0.73 W
same,"HLR: heart capacity right, referred to 20 kg. body weight",30 min after i.v. 1 mg/kg,84.9 mW
same,"HZV: heart minute volume, referred to 20 kg. body weight",30 min after i.v. 1 mg/kg,3.63 L/min
same,LVEDP: end diastolic pressure in the left ventricle,30 min after i.v. 1 mg/kg,4.31 mm.Hg
same,PAP: average pressure in the A. pulmonalis,30 min after i.v. 1 mg/kg,14.1 ±1.8 mm.Hg
same,PRA: pressure in the right atrium,30 min after i.v. 1 mg/kg,3.52 mm.Hg
same,"SV: beat volume, referred to 20 kg. body weight",30 min after i.v. 1 mg/kg,31.6 mL
same,"WAP: pulmonalis resistance, referred to 20 kg. body weight",30 min after i.v. 1 mg/kg,0.36 U
same,"WFem: femoralis resistance, referred to 20 kg. body weight",30 min after i.v. 1 mg/kg,0.29 KU
same,"WTP: total peripheral resistance, referred to 20 kg. body weight",30 min after i.v. 1 mg/kg,3.32 U
same,dp/dt: rate of pressure increase in the left ventricle,30 min after i.v. 1 mg/kg,2184.4 mm.Hg/sec.
